The subject of data set [1] is LTC4 production in MC/9 cells. Description: MC/9 HPLC assay, inhibition of LTC4 production. Type of data set: cell-based. To be noted: Mus musculus; for inhibition at 3 µM: MC9, 3 μM, A23187 stimulated. The gist of the method: (§1)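 MC/9 cells (3×10^6 in HBSS) pre-incubated 30 min with compound, then stimulated 20 min at room temperature with 1 μM A23187. After methanol quench and C18 solid-phase extraction, LTB4 and LTC4 quantified by HPLC against reference standards; inhibition relative to control samples.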

In data set [2] the test system is LTB4 production in MC/9 cells. Description: MC/9 HPLC assay, inhibition of LTB4 production. The data set is classed as cell-based. To be noted: Mus musculus. In a few lines: as §1
The nature of data set [3]: Solubilized concentration of compound in eye drop formulation (HPLC). Type of data set: physicochemical. The note with it: eye drop formulation: 20% hydroxypropyl β-cyclodextrin, 0.5% HPMC, 1.6 mM EDTA in PBS. As to the method: (§2) Eye drops were prepared by adding compounds at a theoretical concentration of 10 mg/mL to a 2 mL microcentrifuge tube before adding a stir bar and the selected formulation that consisted of (w/v) hydroxypropyl β-cyclodextrin (Trappsol) (20%), hydroxyl propyl methylcellulose (0.5%) and EDTA (1.6 mM) in phosphate buffered saline. Tubes containing compound in eye drop formulation were heated to 60-65° C. and stirred at least 4 hours to overnight. The tubes were removed from the heat bath and centrifuged at 10,000 ref for 5 minutes to clear the solution of any residual drug not in solution. The supernatant was removed from the tubes and one 10 μL sample was removed for HPLC analysis of solubilized by HPLC using an ACE C18 column (4.5 mm×150 mm, 5 m), eluted with acetonitrile/methanol/water mixture with H3PO4, pH 3.5 (50:30:20) with a flow rate of 2.5 mL/min. The solubilized concentration of each compound was calculated by interpolation from a standard curve based on reference standards solubilized in methanol when the assay was validated.
In Table 6, the data from distribution studies performed in Lewis rats show the concentration of each compound present in the retina 0.5 hr after the administration of a 10 μL drop of each topical formation is provided. Compounds were paired and individual formulations mixed at a ratio to make a mixture that contained ~2.5 mg/mL of each compound.

A short description of data set [4]: Rat ocular distribution model, retina after topical drop. The note with it: Lewis rats, 10 μL topical drop. Type of data set: in vivo. As to the method:
as §2
Compounds were applied as a single 10 μL drop to rats and the aqueous humor, and the posterior segment of the eye (vitreous body and retina) were collected from each eye at the time point assigned after the eye was irrigated to remove any residual formulation present. Tissues were collected in pre-weighed collection tubes and the tissue weight was determined for each sample. An internal standard (IS) mixture containing a reference compound at a ratio of 1 μL to 4 mg tissue was added to samples, mixed and then diluted×4.25 in acetonitrile:methanol (9:1). Aqueous humour samples were vortex mixed for 10 s. The vitreous body & retina were vortex mixed 2 times each for 10 s, and further mixed for 6 min on a tabletop shaker at 750 rpm followed by final vortex mixing (10 s). All samples were centrifuged to pellet any particulate matter and the supernatant was transferred to LC vials. A 10 μL sample was then applied to the HPLC during LC/MS/MS analysis. A calibration curve for compounds (0.588-176.471 ng/mL) was prepared in rat plasma to estimate concentrations of compounds in each of the matrices analyzed using the area under curve (AUC) normalized to internal standard AUC for determining response. The assumption was made that 1 mg tissue is equivalent to 1 μL plasma. Concentrations measured in each tissue were then normalized to the amount of drug applied to account for differences in solubilized drug in each formulation. The average concentration and the standard deviation was determined based on “n”=number of eyes assessed, rather than the number of animals. […]

In data set [5] the target is T1, recombinant human leukotriene A4 hydrolase enzyme (Homo sapiens, UniProt P09960).
T1 construct: purchased Cayman Chemical 10007817
T1 sequence (P09960 1-611): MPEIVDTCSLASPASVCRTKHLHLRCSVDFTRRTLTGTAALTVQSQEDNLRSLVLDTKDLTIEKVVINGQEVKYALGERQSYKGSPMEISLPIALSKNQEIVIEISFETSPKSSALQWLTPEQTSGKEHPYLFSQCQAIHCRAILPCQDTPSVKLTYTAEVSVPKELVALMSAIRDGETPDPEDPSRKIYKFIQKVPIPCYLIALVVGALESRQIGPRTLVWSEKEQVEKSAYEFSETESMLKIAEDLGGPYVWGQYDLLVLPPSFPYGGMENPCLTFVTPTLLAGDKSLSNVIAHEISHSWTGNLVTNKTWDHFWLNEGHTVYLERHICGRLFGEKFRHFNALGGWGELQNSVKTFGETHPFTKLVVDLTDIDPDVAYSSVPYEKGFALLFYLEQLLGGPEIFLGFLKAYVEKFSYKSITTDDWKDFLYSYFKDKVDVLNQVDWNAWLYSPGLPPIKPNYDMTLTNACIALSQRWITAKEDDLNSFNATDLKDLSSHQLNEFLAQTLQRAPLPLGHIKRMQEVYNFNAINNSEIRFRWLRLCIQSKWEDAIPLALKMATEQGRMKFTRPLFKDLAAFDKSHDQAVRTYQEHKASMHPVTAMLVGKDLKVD
Description: Amino-peptidase assay, PGP. The data set is classed as biochemical. The note with it: concentration not given. As to the method:
A series of compound concentrations were pre-incubated with 50 ng of recombinant human leukotriene A4 hydrolase enzyme (Cayman Chemical, 10007817) in 50 L assay buffer (50 mM Tris-HCl, 100 mM KCl). The reaction was stimulated by adding 50 L 1 mM proline-glycine-proline (Bachem, H-7284) and incubated for 30 minutes at 37° C. The reaction was stopped with the addition of 150 μL of glacial acetic acid. The amount of free proline released from the peptide was detected through a reaction with ninhydrin. 150 μL of 25 mg/mL ninhydrin (BDH, B10132) in 60:40 acetic acid/water was added to each sample, and boiled for 30 minutes at 100° C. and once samples had cooled to room temperature, 350 μL of toluene was added to extract the ninhydrin reaction product. The amount of free proline was determined by comparing the absorbance at 520 nm to the L-proline (Sigma Aldrich, 81709) reference standard. Inhibition of free proline production was calculated based on control samples.

[6] abbreviates: MC9, Table 2 column 3, no concentration in head (1 μM according to b732), read-out: % Inhibition LTC4.
Where [7] appears, read: MC9, Table 2 column 4, no concentration in head (1 μM according to b732), read-out: % Inhibition LTB4.

Molecules are shown by their SMILES. Like-named read-outs stand apart in the source and are kept apart here.

The values below come from patent US12686668B2, “Leukotriene synthesis inhibitors” (Naegis Pharmaceuticals Inc., priority 2019, dated 2026).

Take `CCC(O)(CCc1ccc(Oc2nc3c(SC)cccc3s2)c(OC)c1)C(F)(F)F` (centres unmarked) [Compound 104, 1-{3-methoxy-4-[(4-methylsulfanyl-1,3-benzothiazol-2-yl)oxy]phenyl}-3-(trifluoromethyl)pentan-3-ol]: the inhibition (as a rule, the relative decrease from the control value, in per cent) at 1 µM in data set [1] (MC9, 1 μM, read-out: % inhibition LTC4 (1 μM)) is 90%; in data set [1] (setting [6]), greater than 90%; in data set [2] (MC9, 1 μM, read-out: % inhibition LTB4 (1 μM)), 90%; in data set [2] (setting [7]), greater than 90%. For the same compound, the inhibition at 3 µM in data set [1] is greater than 90%. Moreover, the Concentration of compound in formulation in data set [3] amounted to 2860 µg/mL. Besides, the “Concentration of compound in retina 0.5 hr after administration per mg compound applied (Avg ± SD) n = 2” value in data set [4] is reported as 3340 ± 1061 ng/mL per mg compound applied.
Compound `CC(O)(CCc1ccc(OCc2ccc3ccccc3n2)cc1)C(F)(F)F` (centres unmarked) [Compound 183, 1,1,1-trifluoro-2-methyl-4-[4-(quinolin-2-ylmethoxy)phenyl]butan-2-ol] showed an inhibition at 3 µM in data set [1] greater than 90%. For the same compound, the inhibition at 1 µM in data set [1] (setting [6]) and in data set [2] (setting [7]) was greater than 90% each time. In addition, the “% Inhibition aminopeptidase-PGP activity of LTA4H” value in data set [5] is reported as greater than 75%.
